What was measured:
[1] = tested on: Urinary incontinence secondary to overactive bladder (detrusor hyperreflexia or instability) or idiopathic urge incontinence; test: Clinical Study A: placebo controlled clinical trial, 84 days; type: in vivo, human
Procedure: In a placebo controlled clinical trial 79 patients were randomised. Patients from both genders aged between 18 and 80 years (both inclusive) were included. They had Urinary incontinence secondary to overactive bladder (detrusor hyperreflexia or instability) or idiopathic urge incontinence confirmed by the medical history and urodynamic study.
The patients were treated within one group with (±)-5-{α-[2-(dimethylamino)ethoxy]benzyl}-1-methyl-1H-pirazole citrate, 400 mg, twice a day, tablets for oral administration, or within another group with placebo in matching tablets, twice a day, for administration by oral route. The patients were treated for 84 days.
Efficacy was measured by the difference from baseline in the mean number of leakages, micturitions, urgencies and voidings/24 hours as provided by a 7-day frequency-volume chart in the end of study visit
The primary efficacy analysis was based on the PP population. The treatment groups were compared with respect to the treatment effect, defined as the difference between treatment groups for changes from baseline in the number of voidings per 24 hours.
(§1) As an addition the percentage of responders was compared based on an analysis of the number of patients having <8 voidings/day or experienced complete dryness or both. The statistical significance was determined.

[2] = tested on: Urinary incontinence secondary to overactive bladder (detrusor hyperreflexia or instability) or idiopathic urge incontinence; test: Clinical Study B: placebo controlled clinical trial, 84 days; type: in vivo, human
Procedure: In a placebo controlled clinical trial 135 patients were randomised. Patients from both genders aged between 18 and 80 years (both inclusive) were included. They had Urinary incontinence secondary to overactive bladder (detrusor hyperreflexia or instability) or idiopathic urge incontinence confirmed by the medical history and urodynamic study.
The patients were treated within one group with […]{α-[2-(dimethylamino)ethoxy]benzyl}-1-methyl-1H-pirazole citrate, 230 mg b.i.d, capsules (meaning 400 mg (±)-5-{α-[2-(dimethylamino)ethoxy]benzyl}-1-methyl-1H-pirazole citrate/capsule) for oral administration (twice daily) or within another group with placebo, matching capsules, […], for administration by oral route. The patients were treated for 84 days.
Efficacy was measured by the difference from baseline in the mean number of voidings/24 hours as provided by a 7-day frequency-volume chart in the end of study visit.
The primary efficacy analysis was based on the PP population. […]
as §1

[3] = patients, 400 mg citrate twice a day, oral tablets, 84 days, difference from baseline, 7-day frequency-volume chart

SMILES | improving urge incontinence caused by overactive bladder: efficacy variables compared to placebo ([1]; citrate 400 mg twice a day (equivalent to 230 mg base twice a day), oral route) | mean number of daily leakages compared with placebo [1, 3] | mean number of daily micturitions compared with placebo [1, 3] | mean number of daily urgencies compared with placebo [1, 3] | mean number of daily voidings compared with placebo [1, 3] | percentage of responders (patients having <8 voidings/day or complete dryness or both) versus placebo ([1]; patients, 400 mg citrate twice a day, oral, 84 days, FIG. 1) | percentage of responders (patients having <8 voidings/day or complete dryness or both) versus placebo ([2]; 230 mg b.i.d., oral, FIG. 2) | reduction of the mean number of voidings per 24 hours (change from baseline) ([2]; patients, 230 mg b.i.d. (400 mg citrate/capsule), oral capsules, PP population)
CN(C)CCOC(c1ccccc1)c1ccnn1C.O=C(O)CC(O)(CC(=O)O)C(=O)O (racemic) [(±)-5-{α-[2-(dimethylamino)ethoxy]benzyl}-1-methyl-1H-pirazole citrate] | statistical and clinically significant improvements compared to placebo in the majority of efficacy variables considered | significant reduction | significant reduction | significant reduction | significant reduction | – | – | –
CN(C)CCOC(c1ccccc1)c1ccnn1C.O=C(O)CC(O)(CC(=O)O)C(=O)O (racemic) [(±)-5-{α-[2-(dimethylamino)ethoxy]benzyl}-1-methyl-1H-pirazole] | – | – | – | – | – | superior to placebo | superior to placebo | 5.83 units

Reference: US20040142929A1, “Derivatives of aryl (or heteroaryl) azolylcarbinoles for the treatment of urinary incontinence” (priority 2001, published 2004)
